Laboratory results: patent US20250025473A1 (priority 2021, published 2025)
Like-named read-outs stand apart in the source and are kept apart here.

How the values were obtained:
[1] = biological target: ABL1 (Homo sapiens, UniProt P00519); assay: HotSpot in vitro kinase assay, ABL1; conditions: read-out: Compound IC50, ABL1; in vitro kinase activity
[2] = biological target: T1, panel of 393 kinases (Homo sapiens, UniProt Q15118); assay: biochemical; conditions: CIMSS 10 μM, 10 μM ATP
T1 construct: purchased Reaction Biology Corporation
T1 sequence (Q15118 29-436): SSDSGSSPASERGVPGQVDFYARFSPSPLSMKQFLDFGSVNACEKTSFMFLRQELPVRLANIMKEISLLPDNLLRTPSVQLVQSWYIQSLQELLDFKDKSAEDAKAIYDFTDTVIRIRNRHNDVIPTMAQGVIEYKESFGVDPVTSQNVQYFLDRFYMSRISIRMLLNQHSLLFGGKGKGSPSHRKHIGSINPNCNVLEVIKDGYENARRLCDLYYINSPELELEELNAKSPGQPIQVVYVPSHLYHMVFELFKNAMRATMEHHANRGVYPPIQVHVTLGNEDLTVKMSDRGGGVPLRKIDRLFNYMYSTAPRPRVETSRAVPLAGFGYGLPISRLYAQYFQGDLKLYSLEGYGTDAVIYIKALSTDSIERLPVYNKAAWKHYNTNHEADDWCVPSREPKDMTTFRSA

[3] = biological target: T2, panel of 393 kinases (Homo sapiens, UniProt P19525); assay: biochemical; conditions: CIMSS 10 μM, 10 μM ATP
T2 construct: purchased Reaction Biology Corporation
T2 sequence (P19525 whole entry): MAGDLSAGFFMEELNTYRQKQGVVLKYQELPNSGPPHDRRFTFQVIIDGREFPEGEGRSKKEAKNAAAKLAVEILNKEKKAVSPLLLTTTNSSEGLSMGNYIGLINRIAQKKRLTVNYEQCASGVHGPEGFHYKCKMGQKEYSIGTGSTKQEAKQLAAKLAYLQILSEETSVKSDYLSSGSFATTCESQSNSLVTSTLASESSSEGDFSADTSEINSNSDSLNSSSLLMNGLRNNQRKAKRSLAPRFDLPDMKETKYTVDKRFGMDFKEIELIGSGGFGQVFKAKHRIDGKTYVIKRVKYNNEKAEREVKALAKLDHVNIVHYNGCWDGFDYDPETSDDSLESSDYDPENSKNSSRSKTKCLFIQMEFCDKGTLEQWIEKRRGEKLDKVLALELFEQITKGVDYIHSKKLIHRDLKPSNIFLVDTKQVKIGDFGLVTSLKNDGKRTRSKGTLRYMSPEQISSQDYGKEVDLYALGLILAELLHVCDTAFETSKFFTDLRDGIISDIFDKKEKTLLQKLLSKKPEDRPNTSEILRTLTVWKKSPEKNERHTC

[4] = biological target: T3, panel of 393 kinases (Homo sapiens, UniProt P78527); assay: biochemical; conditions: CIMSS 10 μM, 10 μM ATP
T3 construct: purchased Reaction Biology Corporation

[5] = biological target: T4, panel of 393 kinases (Homo sapiens, UniProt P54646); assay: biochemical; conditions: CIMSS 10 μM, 10 μM ATP
T4 construct: purchased Reaction Biology Corporation
T4 sequence (P54646 whole entry): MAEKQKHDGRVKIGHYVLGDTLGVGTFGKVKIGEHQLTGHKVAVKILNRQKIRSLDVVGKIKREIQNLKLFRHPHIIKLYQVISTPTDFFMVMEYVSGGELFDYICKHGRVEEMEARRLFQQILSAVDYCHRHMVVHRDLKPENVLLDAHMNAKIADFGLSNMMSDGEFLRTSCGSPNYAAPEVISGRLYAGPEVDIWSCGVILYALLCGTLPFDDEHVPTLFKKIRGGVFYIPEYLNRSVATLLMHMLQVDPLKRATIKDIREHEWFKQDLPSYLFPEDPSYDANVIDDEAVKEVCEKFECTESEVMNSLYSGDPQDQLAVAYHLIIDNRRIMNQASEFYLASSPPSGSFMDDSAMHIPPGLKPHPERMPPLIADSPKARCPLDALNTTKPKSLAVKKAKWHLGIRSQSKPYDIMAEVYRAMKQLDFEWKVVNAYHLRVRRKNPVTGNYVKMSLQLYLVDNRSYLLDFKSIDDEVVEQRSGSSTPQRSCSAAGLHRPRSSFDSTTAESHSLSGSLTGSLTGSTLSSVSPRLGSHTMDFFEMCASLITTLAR

[6] = biological target: T5, panel of 393 kinases (Homo sapiens, UniProt P42345); assay: biochemical; conditions: CIMSS 10 μM, 10 μM ATP
T5 construct: purchased Reaction Biology Corporation

[7] = biological target: T6, panel of 393 kinases (Homo sapiens, UniProt Q9NZJ5); assay: biochemical; conditions: CIMSS 10 μM, 10 μM ATP
T6 construct: purchased Reaction Biology Corporation
T6 sequence (Q9NZJ5 30-1116): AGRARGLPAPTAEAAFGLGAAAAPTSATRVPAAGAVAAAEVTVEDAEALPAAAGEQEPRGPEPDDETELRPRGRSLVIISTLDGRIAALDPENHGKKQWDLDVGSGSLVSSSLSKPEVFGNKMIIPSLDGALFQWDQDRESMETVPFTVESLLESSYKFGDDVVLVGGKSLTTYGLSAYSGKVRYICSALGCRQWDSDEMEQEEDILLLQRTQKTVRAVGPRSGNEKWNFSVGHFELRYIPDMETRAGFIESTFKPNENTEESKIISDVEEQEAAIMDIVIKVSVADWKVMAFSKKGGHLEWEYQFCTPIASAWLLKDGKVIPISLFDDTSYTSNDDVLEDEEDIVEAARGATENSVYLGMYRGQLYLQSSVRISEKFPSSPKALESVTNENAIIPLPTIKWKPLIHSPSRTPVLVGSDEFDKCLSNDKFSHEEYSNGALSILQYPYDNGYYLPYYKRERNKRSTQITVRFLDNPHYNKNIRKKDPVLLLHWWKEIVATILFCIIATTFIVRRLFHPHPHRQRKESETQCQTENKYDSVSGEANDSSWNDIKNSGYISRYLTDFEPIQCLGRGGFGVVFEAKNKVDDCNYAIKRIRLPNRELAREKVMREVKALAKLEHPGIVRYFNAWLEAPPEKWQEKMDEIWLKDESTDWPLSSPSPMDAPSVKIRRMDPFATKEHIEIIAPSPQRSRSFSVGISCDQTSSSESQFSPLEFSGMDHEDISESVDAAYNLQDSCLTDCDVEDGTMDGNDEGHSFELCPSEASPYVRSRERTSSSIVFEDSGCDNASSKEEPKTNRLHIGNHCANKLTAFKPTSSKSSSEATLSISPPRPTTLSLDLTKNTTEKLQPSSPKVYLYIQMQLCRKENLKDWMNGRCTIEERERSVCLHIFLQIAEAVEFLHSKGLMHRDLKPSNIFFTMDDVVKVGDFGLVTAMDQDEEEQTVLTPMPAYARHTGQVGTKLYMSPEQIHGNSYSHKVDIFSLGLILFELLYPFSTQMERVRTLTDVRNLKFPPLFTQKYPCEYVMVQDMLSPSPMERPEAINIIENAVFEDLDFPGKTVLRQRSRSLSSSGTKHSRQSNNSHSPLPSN

[8] = system: PLSCR1; assay type: cell-based, monkey; conditions: Vero, 30 minutes; drugs 10 μM each
[9] = biological target: Insulin Receptor (Homo sapiens, UniProt P06213); assay: HotSpot in vitro kinase assay, Insulin Receptor
Chain of Insulin Receptor (P06213 28-1382): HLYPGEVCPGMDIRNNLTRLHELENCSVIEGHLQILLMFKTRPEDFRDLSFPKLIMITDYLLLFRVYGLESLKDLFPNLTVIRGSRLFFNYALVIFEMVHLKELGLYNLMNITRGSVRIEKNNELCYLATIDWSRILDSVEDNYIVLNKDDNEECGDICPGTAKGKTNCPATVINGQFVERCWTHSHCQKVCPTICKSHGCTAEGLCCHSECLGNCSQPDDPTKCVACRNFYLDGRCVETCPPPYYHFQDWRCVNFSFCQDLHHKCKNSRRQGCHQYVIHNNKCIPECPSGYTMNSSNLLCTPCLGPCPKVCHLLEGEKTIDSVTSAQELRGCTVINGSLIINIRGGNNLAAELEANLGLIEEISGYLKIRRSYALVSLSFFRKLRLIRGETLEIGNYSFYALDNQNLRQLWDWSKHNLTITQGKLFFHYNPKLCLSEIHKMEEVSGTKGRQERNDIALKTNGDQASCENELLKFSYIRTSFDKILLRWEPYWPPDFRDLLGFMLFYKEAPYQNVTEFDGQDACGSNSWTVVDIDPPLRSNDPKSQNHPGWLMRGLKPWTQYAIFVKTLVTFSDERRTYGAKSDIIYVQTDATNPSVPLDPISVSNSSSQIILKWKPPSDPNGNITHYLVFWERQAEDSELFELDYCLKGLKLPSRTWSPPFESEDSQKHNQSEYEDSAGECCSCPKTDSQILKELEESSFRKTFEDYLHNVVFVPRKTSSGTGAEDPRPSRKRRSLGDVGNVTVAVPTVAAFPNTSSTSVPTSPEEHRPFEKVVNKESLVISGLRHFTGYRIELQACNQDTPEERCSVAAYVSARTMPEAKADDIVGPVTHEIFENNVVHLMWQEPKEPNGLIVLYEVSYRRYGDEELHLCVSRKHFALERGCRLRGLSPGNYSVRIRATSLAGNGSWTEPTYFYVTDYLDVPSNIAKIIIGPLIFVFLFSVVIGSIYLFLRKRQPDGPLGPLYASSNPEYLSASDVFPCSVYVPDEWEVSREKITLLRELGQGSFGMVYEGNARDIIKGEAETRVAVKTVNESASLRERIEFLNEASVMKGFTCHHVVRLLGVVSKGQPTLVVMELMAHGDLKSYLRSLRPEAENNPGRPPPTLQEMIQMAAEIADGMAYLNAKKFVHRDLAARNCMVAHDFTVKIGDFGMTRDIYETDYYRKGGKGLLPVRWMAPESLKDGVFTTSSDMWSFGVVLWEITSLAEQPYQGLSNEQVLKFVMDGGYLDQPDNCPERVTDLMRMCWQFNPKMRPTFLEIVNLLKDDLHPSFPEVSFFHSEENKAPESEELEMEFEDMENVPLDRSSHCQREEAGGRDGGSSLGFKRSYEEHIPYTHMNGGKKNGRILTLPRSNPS

[10] = system: intracellular Ca2+; assay: Calcium kinetic measurements (Fura-2) after HSV exposure; assay type: cell-based, human; conditions: 10 μM, HaCat
Method: The cells were then washed, lysed and Western blots of cell lysates prepared and probed with a mAb to gD as a marker of cell-bound virus and anti-3-actin as a loading control. […] Representative responses are shown for the first 30 minutes (left) and the mean calcium released over the first 3 minutes and then the extended response in the first hour following viral exposure were calculated from 4 wells in 3 independent experiments, each containing 5×10^4 cells (right). Asterisks indicate statistically significant differences by ANOVA (*, p<0.05, ** p<0.01, *** p<0.001) relative to control cells (mock-infected, DMSO). […] Nuclei were stained blue with DAPI. Images are representative of 2 independent experiments. […] Nuclei are stained blue (DAPI). Images were obtained with ZeissLive/DuoScan (objective 100×1.4, bar=10 μm) are representative of 2 independent experiments; quantification is shown in FIG. 11.
The cells were then transferred to SpectraMax® MF^e temperature-regulated chamber at 37° C. […] An intracellular calibration was performed with each experiment by determining the fluorescence ratio (340:380) in the presence of Ca-free 10 mM K2EGTA buffer (Rmin) and 10 mM CaEGTA buffer containing 10 μM ionomycin (Rmax) (C-3008, Calcium Calibration Buffer Kit #1, Invitrogen Molecular Probes™).

[11] = biological target: T7, PDPK1 (Homo sapiens, UniProt O15530); assay: HotSpot in vitro kinase assay, PDPK1; assay type: biochemical
T7 construct: purchased Reaction Biology Corporation
T7 sequence (O15530 1-556): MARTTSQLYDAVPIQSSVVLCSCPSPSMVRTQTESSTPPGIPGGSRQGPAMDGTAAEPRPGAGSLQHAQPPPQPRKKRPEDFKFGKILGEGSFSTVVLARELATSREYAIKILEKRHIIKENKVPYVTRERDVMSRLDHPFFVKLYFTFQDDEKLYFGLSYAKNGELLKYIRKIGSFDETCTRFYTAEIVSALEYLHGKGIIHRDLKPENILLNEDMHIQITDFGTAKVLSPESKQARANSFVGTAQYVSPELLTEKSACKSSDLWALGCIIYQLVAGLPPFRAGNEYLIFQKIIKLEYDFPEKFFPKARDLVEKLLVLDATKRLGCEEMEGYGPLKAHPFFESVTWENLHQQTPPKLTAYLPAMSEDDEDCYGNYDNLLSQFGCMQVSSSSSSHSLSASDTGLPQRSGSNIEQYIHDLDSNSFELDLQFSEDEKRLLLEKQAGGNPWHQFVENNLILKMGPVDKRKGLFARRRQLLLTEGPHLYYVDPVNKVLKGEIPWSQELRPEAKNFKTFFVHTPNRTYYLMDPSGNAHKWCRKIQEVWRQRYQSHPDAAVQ

[12] = system: HSV-1 K26GFP; assay: HSV capsid entry, GFP+ cells by confocal imaging; conditions: HaCat, CIMSS 10 μM, anti-Akt 2 μg/ml, cycloheximide 10 μg/ml
[13] = system: HSV-2(G); assay: Nuclear transport of VP16 (immunoblot of nuclear extracts); conditions: HaCat and primary vaginal cells, 1 h post-infection; CIMSS 10 μM, antibody 2 μg/ml

Chain of ABL1 (P00519 whole entry): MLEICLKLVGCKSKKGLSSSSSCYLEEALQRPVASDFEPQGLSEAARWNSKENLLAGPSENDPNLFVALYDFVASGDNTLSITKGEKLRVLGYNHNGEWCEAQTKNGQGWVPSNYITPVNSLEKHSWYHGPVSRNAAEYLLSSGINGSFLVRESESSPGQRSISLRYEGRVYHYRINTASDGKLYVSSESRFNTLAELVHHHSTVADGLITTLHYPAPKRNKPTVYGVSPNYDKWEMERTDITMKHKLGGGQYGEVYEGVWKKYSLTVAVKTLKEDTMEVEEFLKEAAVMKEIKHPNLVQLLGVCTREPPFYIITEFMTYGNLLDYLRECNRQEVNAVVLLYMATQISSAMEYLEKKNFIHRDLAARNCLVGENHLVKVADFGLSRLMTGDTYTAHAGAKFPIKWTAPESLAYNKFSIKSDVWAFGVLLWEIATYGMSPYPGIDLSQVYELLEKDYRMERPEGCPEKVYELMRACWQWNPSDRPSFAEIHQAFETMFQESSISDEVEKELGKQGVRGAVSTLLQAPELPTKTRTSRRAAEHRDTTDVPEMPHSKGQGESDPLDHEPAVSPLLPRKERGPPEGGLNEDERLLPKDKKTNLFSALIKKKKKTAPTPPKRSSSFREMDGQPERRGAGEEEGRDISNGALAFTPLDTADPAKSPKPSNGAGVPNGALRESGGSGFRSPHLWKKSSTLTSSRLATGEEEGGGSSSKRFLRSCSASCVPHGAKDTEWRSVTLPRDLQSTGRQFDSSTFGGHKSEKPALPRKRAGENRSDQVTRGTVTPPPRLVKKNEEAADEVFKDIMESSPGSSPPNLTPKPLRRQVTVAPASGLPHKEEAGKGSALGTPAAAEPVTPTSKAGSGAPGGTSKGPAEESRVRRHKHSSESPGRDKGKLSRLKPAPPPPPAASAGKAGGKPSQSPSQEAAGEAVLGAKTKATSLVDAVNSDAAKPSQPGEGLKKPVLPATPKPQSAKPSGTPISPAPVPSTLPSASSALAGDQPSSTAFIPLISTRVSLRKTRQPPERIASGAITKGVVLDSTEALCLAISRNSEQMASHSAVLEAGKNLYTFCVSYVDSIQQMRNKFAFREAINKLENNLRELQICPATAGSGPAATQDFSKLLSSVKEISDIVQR

CO[C@@H]1[C@H](N(C)C(=O)CCC(=O)NCc2cn(CCCS(=O)(=O)[O-])nn2)C[C@H]2O[C@]1(C)n1c3ccccc3c3c4c(c5c6ccccc6n2c5c31)C(=O)NC4.[Na+] [CIMSS]
IC50 [1]: 143 nM | remaining activity at 10 µM ([2]; read-out: % Enzyme Activity (relative to DMSO controls) CIMSS (10 μM) Data 1, kinase PDK1/PDHK1, Data 1): 97.2% | remaining activity at 10 µM ([2]; read-out: % Enzyme Activity (relative to DMSO controls) CIMSS (10 μM) Data 2, kinase PDK1/PDHK1, Data 2): 96.8% | remaining activity at 10 µM ([3]; read-out: % Enzyme Activity (relative to DMSO controls) CIMSS (10 μM) Data 1, kinase EIF2AK2, Data 1): 9.89% | remaining activity at 10 µM ([3]; read-out: % Enzyme Activity (relative to DMSO controls) CIMSS (10 μM) Data 2, kinase EIF2AK2, Data 2): 9.34% | remaining activity at 10 µM ([4]; read-out: % Enzyme Activity (relative to DMSO controls) CIMSS (10 μM) Data 1, kinase DNA-PK, Data 1): 98.2% | remaining activity at 10 µM ([4]; read-out: % Enzyme Activity (relative to DMSO controls) CIMSS (10 μM) Data 2, kinase DNA-PK, Data 2): 95.8% | remaining activity at 10 µM ([5]; read-out: % Enzyme Activity (relative to DMSO controls) CIMSS (10 μM) Data 1, kinase AMPK (A2/B1/G3), Data 1): 0.67% | remaining activity at 10 µM ([5]; read-out: % Enzyme Activity (relative to DMSO controls) CIMSS (10 μM) Data 1, kinase AMPK(A2/B1/G1), Data 1): 0.76% | remaining activity at 10 µM ([5]; read-out: % Enzyme Activity (relative to DMSO controls) CIMSS (10 μM) Data 1, kinase AMPK(A2/B2/G1), Data 1): 0.34% | remaining activity at 10 µM ([5]; read-out: % Enzyme Activity (relative to DMSO controls) CIMSS (10 μM) Data 1, kinase AMPK(A2/B2/G2), Data 1): 0.73% | remaining activity at 10 µM ([5]; read-out: % Enzyme Activity (relative to DMSO controls) CIMSS (10 μM) Data 1, kinase AMPK(A2/B2/G3), Data 1): 0.63% | remaining activity at 10 µM ([5]; read-out: % Enzyme Activity (relative to DMSO controls) CIMSS (10 μM) Data 2, kinase AMPK (A2/B1/G3), Data 2): 0.59% | remaining activity at 10 µM ([5]; read-out: % Enzyme Activity (relative to DMSO controls) CIMSS (10 μM) Data 2, kinase AMPK(A2/B1/G1), Data 2): 0.64% | remaining activity at 10 µM ([5]; read-out: % Enzyme Activity (relative to DMSO controls) CIMSS (10 μM) Data 2, kinase AMPK(A2/B2/G1), Data 2): 0.23% | remaining activity at 10 µM ([5]; read-out: % Enzyme Activity (relative to DMSO controls) CIMSS (10 μM) Data 2, kinase AMPK(A2/B2/G2), Data 2): 0.63% | remaining activity at 10 µM ([5]; read-out: % Enzyme Activity (relative to DMSO controls) CIMSS (10 μM) Data 2, kinase AMPK(A2/B2/G3), Data 2): 0.61% | remaining activity at 10 µM ([6]; read-out: % Enzyme Activity (relative to DMSO controls) CIMSS (10 μM) Data 1, kinase mTOR/FRAP1, Data 1): 112% | remaining activity at 10 µM ([6]; read-out: % Enzyme Activity (relative to DMSO controls) CIMSS (10 μM) Data 2, kinase mTOR/FRAP1, Data 2): 108% | remaining activity at 10 µM ([7]; read-out: % Enzyme Activity (relative to DMSO controls) CIMSS (10 μM) Data 1, kinase EIF2AK3, Data 1): 61.6% | remaining activity at 10 µM ([7]; read-out: % Enzyme Activity (relative to DMSO controls) CIMSS (10 μM) Data 2, kinase EIF2AK3, Data 2): 60.2% | phosphorylation of PLSCR1 after VSV-S [8]: preserved | fold less effective than staurosporine (IC50), insulin receptor [9]: ~40 fold | IC50 ([9]; read-out: Compound IC50, Insulin Receptor, in vitro kinase activity): 803 nM | extended Ca2+ release (first hour pi) [10]: significant reduction | initial Ca2+ transient (first three minutes following HSV exposure) [10]: did not block | IC50 for PDPK1 compared with staurosporine [11]: comparable | IC50 ([11]; in vitro kinase activity, read-out: Compound IC50, PDPK1): 0.278 nM | inhibition at 10 µM ([11]; read-out: inhibition of PDPK1): > 75% | percentage of GFP+ cells ([12]; 4 h post-temperature shift): significantly reduced | percentage of GFP+ cells ([12]; one hour post temperature shift): significantly decreased | nuclear transport of VP-16 [13]: inhibited
